Reference: paper PMC8288134, “Synthesis, potential antitumor activity, cell cycle analysis, and multitarget mechanisms of novel hydrazones incorporating a 4-methylsulfonylbenzene scaffold: a molecular docking study” (Journal of Enzyme Inhibition and Medicinal Chemistry, 2021)

How the values were obtained:
A549/ATCC [1] = assay: NCI antitumor screen (SRB); type: cell-based; settings: Homo sapiens, one dose 10 µM, read-out: Growth inhibition percentage (GI%)
BT-549 [2] = assay: NCI antitumor screen (SRB); type: cell-based; settings: Homo sapiens, one dose 10 µM, read-out: Growth inhibition percentage (GI%)
SR = assay: NCI antitumor screen (SRB); type: cell-based; settings: Homo sapiens, one dose 10 µM, read-out: Growth inhibition percentage (GI%)
A498 = assay: NCI antitumor screen (SRB); type: cell-based; settings: Homo sapiens, one dose 10 µM, read-out: Growth inhibition percentage (GI%)
MDA-MB-435 = assay: NCI antitumor screen (SRB); type: cell-based; settings: Homo sapiens, one dose 10 µM, read-out: Growth inhibition percentage (GI%)
MOLT-4 = assay: NCI antitumor screen (SRB); type: cell-based; settings: Homo sapiens, one dose 10 µM, read-out: Growth inhibition percentage (GI%)
OVCAR-3 = assay: NCI antitumor screen (SRB); type: cell-based; settings: Homo sapiens, one dose 10 µM, read-out: Growth inhibition percentage (GI%)
SF-268 = assay: NCI antitumor screen (SRB); type: cell-based; settings: Homo sapiens, one dose 10 µM, read-out: Growth inhibition percentage (GI%)
NCI-H23 = assay: NCI antitumor screen (SRB); type: cell-based; settings: Homo sapiens, one dose 10 µM, read-out: Growth inhibition percentage (GI%)
MCF7 = assay: NCI antitumor screen (SRB); type: cell-based; settings: Homo sapiens, one dose 10 µM, read-out: Growth inhibition percentage (GI%)
DU-145 = assay: NCI antitumor screen (SRB); type: cell-based; settings: Homo sapiens, one dose 10 µM, read-out: Growth inhibition percentage (GI%)
SN12C = assay: NCI antitumor screen (SRB); type: cell-based; settings: Homo sapiens, one dose 10 µM, read-out: Growth inhibition percentage (GI%)
HCC-2998 = assay: NCI antitumor screen (SRB); type: cell-based; settings: Homo sapiens, one dose 10 µM, read-out: Growth inhibition percentage (GI%)
SNB-19 [3] = assay: NCI antitumor screen (SRB); type: cell-based; settings: Homo sapiens, one dose 10 µM, read-out: Growth inhibition percentage (GI%)
786-0 = assay: NCI antitumor screen (SRB); type: cell-based; settings: Homo sapiens, one dose 10 µM, read-out: Growth inhibition percentage (GI%)
[4] = system: prostate cancer tumour cell lines; settings: cited from earlier work; for GI50: read-out: GI50 (subpanel average), reference drugs, ref https://dtp.cancer.gov/dtpstandard/dwindex/index.jsp; for CC50: read-out: LC50 (subpanel average), reference drugs, ref https://dtp.cancer.gov/dtpstandard/dwindex/index.jsp; for TGI (subpanel average): reference drugs, ref https://dtp.cancer.gov/dtpstandard/dwindex/index.jsp
SK-MEL-5 [5] = assay: NCI antitumor screen (SRB); type: cell-based, human; settings: Homo sapiens; SK-MEL-5; one dose 10 µM; read-out: Growth inhibition percentage (GI%)
SK-OV-3 = system: SK-OV-3; set-up: method as in https://dtp.cancer.gov/dtpstandard/dwindex/index.jsp; settings: reference drugs, ref https://dtp.cancer.gov/dtpstandard/dwindex/index.jsp; cited from earlier work
MDA-MB-468 = system: MDA-MB-468; set-up: method as in https://dtp.cancer.gov/dtpstandard/dwindex/index.jsp; settings: reference drugs, ref https://dtp.cancer.gov/dtpstandard/dwindex/index.jsp; cited from earlier work
BT-549 [6] = system: BT-549; set-up: method as in https://dtp.cancer.gov/dtpstandard/dwindex/index.jsp; settings: reference drugs, ref https://dtp.cancer.gov/dtpstandard/dwindex/index.jsp; cited from earlier work
SNB-75 = system: SNB-75; set-up: method as in https://dtp.cancer.gov/dtpstandard/dwindex/index.jsp; settings: reference drugs, ref https://dtp.cancer.gov/dtpstandard/dwindex/index.jsp; cited from earlier work
M14 = system: M14; set-up: method as in https://dtp.cancer.gov/dtpstandard/dwindex/index.jsp; settings: reference drugs, ref https://dtp.cancer.gov/dtpstandard/dwindex/index.jsp; cited from earlier work
EKVX = system: EKVX; set-up: method as in https://dtp.cancer.gov/dtpstandard/dwindex/index.jsp; settings: reference drugs, ref https://dtp.cancer.gov/dtpstandard/dwindex/index.jsp; cited from earlier work
OVCAR-4 = system: OVCAR-4; set-up: method as in https://dtp.cancer.gov/dtpstandard/dwindex/index.jsp; settings: reference drugs, ref https://dtp.cancer.gov/dtpstandard/dwindex/index.jsp; cited from earlier work
UO-31 = system: UO-31; set-up: method as in https://dtp.cancer.gov/dtpstandard/dwindex/index.jsp; settings: reference drugs, ref https://dtp.cancer.gov/dtpstandard/dwindex/index.jsp; cited from earlier work
SNB-19 [7] = system: SNB-19; set-up: method as in https://dtp.cancer.gov/dtpstandard/dwindex/index.jsp; settings: reference drugs, ref https://dtp.cancer.gov/dtpstandard/dwindex/index.jsp; cited from earlier work
MDA-MB-231/ATCC = system: MDA-MB-231/ATCC; set-up: method as in https://dtp.cancer.gov/dtpstandard/dwindex/index.jsp; settings: reference drugs, ref https://dtp.cancer.gov/dtpstandard/dwindex/index.jsp; cited from earlier work
CCRF-CEM = system: CCRF-CEM; set-up: method as in https://dtp.cancer.gov/dtpstandard/dwindex/index.jsp; settings: reference drugs, ref https://dtp.cancer.gov/dtpstandard/dwindex/index.jsp; cited from earlier work
A549/ATCC [8] = system: A549/ATCC; set-up: method as in https://dtp.cancer.gov/dtpstandard/dwindex/index.jsp; settings: reference drugs, ref https://dtp.cancer.gov/dtpstandard/dwindex/index.jsp; cited from earlier work
SK-MEL-5 [9] = system: SK-MEL-5; set-up: method as in https://dtp.cancer.gov/dtpstandard/dwindex/index.jsp; settings: reference drugs, ref https://dtp.cancer.gov/dtpstandard/dwindex/index.jsp; cited from earlier work

Row | SMILES | GI50 [4] [µM] | CC50 [4] [µM] | TGI (subpanel average) [4] | GI50 (SK-OV-3) [µM] | GI50 (MDA-MB-468) [µM] | GI50 (BT-549 [6]) [µM] | GI50 (SNB-75) [µM] | GI50 (M14) [µM] | GI50 (EKVX) [µM] | GI50 (OVCAR-4) [µM] | GI50 (UO-31) [µM] | GI50 (SNB-19 [7]) [µM] | GI50 (MDA-MB-231/ATCC) [µM] | GI50 (CCRF-CEM) [µM] | GI50 (A549/ATCC [8]) [µM] | GI50 (SK-MEL-5 [9]) [µM] | other results
1 | O=c1[nH]cc(F)c(=O)[nH]1 [Compound 5-Fu, 5-fluorouracil, reference compound] | 1.46 | > 100 | c (Compounds showed values ≥ 100 µM) |  |  |  |  |  |  |  |  |  |  |  |  |  | inhibition at 10 µM (A549/ATCC [1]): 65.8%; inhibition at 10 µM (BT-549 [2]): 62.2%; inhibition at 10 µM (SR): 75.2%; inhibition at 10 µM (A498): > 100%; inhibition at 10 µM (MDA-MB-435): 63.4%; inhibition at 10 µM (MOLT-4): 56.9%; inhibition at 10 µM (OVCAR-3): 52.6%; inhibition at 10 µM (SF-268): 41%; inhibition at 10 µM (NCI-H23): 61%; inhibition at 10 µM (MCF7): 88.5%; inhibition at 10 µM (DU-145): 64.5%; inhibition at 10 µM (SN12C): 46%; inhibition at 10 µM (HCC-2998): > 100%; inhibition at 10 µM (SNB-19 [3]): 34.1%; inhibition at 10 µM (786-0): 51.3%; inhibition at 10 µM (SK-MEL-5 [5]): 66.3%
2 | CNC(=O)c1cc(Oc2ccc(NC(=O)Nc3ccc(Cl)c(C(F)(F)F)c3)cc2)ccn1 [Sorafenib, sorafenib] | 2.58 | 69.9 | 10.27 µM | 2.51 | 1.99 | 3.16 | 3.16 | 1.99 | 2.51 | 3.16 | 2.51 | 3.16 | 1.26 | 1.99 | 3.16 |  | 
3 | C#Cc1cccc(Nc2ncnc3cc(OCCOC)c(OCCOC)cc23)c1 [Erlotinib, erlotinib] | 20.9 | > 100 | c (Compounds showed values ≥ 100 µM) | 0.5 | 0.126 | 31.6 | 12.6 | 6.31 | 0.199 | 10 | 1 | 12.6 | 6.31 | 50.1 | 10 |  | 
4 | Cc1ccc(-c2cc(C(F)(F)F)nn2-c2ccc(S(N)(=O)=O)cc2)cc1 [Celecoxib, celecoxib] | 14.2 | 57 | 28.37 µM | 19.9 |  | 19.9 | 15.8 | 63.1 | 19.9 | 12.6 | 15.8 | 19.9 | 15.8 | 12.6 | 15.8 | 15.8 | 
5 | CS(=O)(=O)c1ccc(C(=O)Nc2ccc(Cl)c(-c3ccccn3)c2)c(Cl)c1 [Vismodegib, vismodegib] |  |  |  |  | 19.9 |  | 25.1 | 31.6 | 39.8 | 39.8 | 31.6 | 63.1 | 19.9 | 31.6 | 39.8 | 25.1 | 
